Legend:
Experiment in all cases: relative viability (nuclei count vs DMSO), 5 days (fraction); higher = more cells survive
MK-2206 + Decitabine = compound: NC1(c2ccc(-c3nc4ccn5c(=O)[nH]nc5c4cc3-c3ccccc3)cc2)CCC1 [MK-2206] + Nc1ncn([C@H]2C[C@H](O)[C@@H](CO)O2)c(=O)n1 [Decitabine] (partner 2 µM)
Method in brief: (§1)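 Lung cancer cell lines, seeded in 1536-well plates, were treated the following day by pin tool with a single drug or with five library-drug doses (not always all listed) in √10 steps on top of a fixed anchor-drug dose. Cells were fixed and nuclei stained in one step after 5 days, and nuclei were counted. Relative viability is the nuclei count for treated wells divided by that for vehicle wells, reported as medians of duplicate plates.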

Pictilisib + Linsitinib = compound: CS(=O)(=O)N1CCN(Cc2cc3nc(-c4cccc5[nH]ncc45)nc(N4CCOCC4)c3s2)CC1 [Pictilisib] + C[C@]1(O)C[C@@H](c2nc(-c3ccc4ccc(-c5ccccc5)nc4c3)c3c(N)nccn32)C1 [Linsitinib] (partner 1 µM)
Method in brief: as §1

MK-2206 + Crizotinib = compound: NC1(c2ccc(-c3nc4ccn5c(=O)[nH]nc5c4cc3-c3ccccc3)cc2)CCC1 [MK-2206] + C[C@@H](Oc1cc(-c2cnn(C3CCNCC3)c2)cnc1N)c1c(Cl)ccc(F)c1Cl [Crizotinib] (partner 1 µM)
Method in brief: as §1

Pictilisib + Crizotinib = compound: CS(=O)(=O)N1CCN(Cc2cc3nc(-c4cccc5[nH]ncc45)nc(N4CCOCC4)c3s2)CC1 [Pictilisib] + C[C@@H](Oc1cc(-c2cnn(C3CCNCC3)c2)cnc1N)c1c(Cl)ccc(F)c1Cl [Crizotinib] (partner 1 µM)
Method in brief: as §1

MK-2206 + Pemetrexed = compound: NC1(c2ccc(-c3nc4ccn5c(=O)[nH]nc5c4cc3-c3ccccc3)cc2)CCC1 [MK-2206] + Nc1nc2[nH]cc(CCc3ccc(C(=O)N[C@@H](CCC(=O)O)C(=O)O)cc3)c2c(=O)[nH]1 [Pemetrexed] (partner 0.2 µM)
Method in brief: as §1

Cell Line | relative viability (MK-2206 + Decitabine; first compound 0.01 µM) | relative viability (MK-2206 + Decitabine; first compound 0.03162 µM) | relative viability (MK-2206 + Decitabine; first compound 0.3162 µM) | relative viability (MK-2206 + Decitabine; first compound 1 µM) | relative viability (Pictilisib + Linsitinib; first compound 0.02 µM) | relative viability (Pictilisib + Linsitinib; first compound 0.06325 µM) | relative viability (Pictilisib + Linsitinib; first compound 0.6325 µM) | relative viability (Pictilisib + Linsitinib; first compound 2 µM) | relative viability (MK-2206 + Crizotinib; first compound 0.01 µM) | relative viability (MK-2206 + Crizotinib; first compound 0.03162 µM) | relative viability (MK-2206 + Crizotinib; first compound 0.3162 µM) | relative viability (MK-2206 + Crizotinib; first compound 1 µM) | relative viability (Pictilisib + Crizotinib; first compound 0.02 µM) | relative viability (Pictilisib + Crizotinib; first compound 0.06325 µM) | relative viability (Pictilisib + Crizotinib; first compound 0.6325 µM) | relative viability (Pictilisib + Crizotinib; first compound 2 µM) | relative viability (MK-2206 + Pemetrexed; first compound 0.01 µM) | relative viability (MK-2206 + Pemetrexed; first compound 0.03162 µM) | relative viability (MK-2206 + Pemetrexed; first compound 0.3162 µM) | relative viability (MK-2206 + Pemetrexed; first compound 1 µM)
A549 | 0.304 | 0.26 | 0.24 | 0.294 | 0.674 | 0.606 | 0.476 | 0.307 | 0.733 | 0.744 | 0.641 | 0.535 | 0.694 | 0.729 | 0.436 | 0.199 |  |  |  | 
ChaGo-K-1 | 0.533 | 0.511 | 0.514 | 0.526 |  |  |  |  | 1.08 | 1.11 | 0.961 | 1.14 | 1.17 | 1.21 | 1.08 | 0.947 | 0.267 | 0.268 | 0.265 | 0.265
NCI-H2342 | 0.687 | 0.792 | 0.787 | 0.629 |  |  |  |  |  |  |  |  |  |  |  |  | 0.663 | 0.782 | 0.675 | 0.738
NCI-H1648 | 0.405 | 0.574 | 0.483 | 0.575 |  |  |  |  |  |  |  |  |  |  |  |  | 0.719 | 0.651 | 0.691 | 0.786
ABC-1 | 1.19 | 1.25 | 1.06 | 1.02 | 0.863 | 0.783 | 0.651 | 0.635 | 1.3 | 1.26 | 1.14 | 1.02 | 0.96 | 1.2 | 1.2 | 0.507 |  |  |  | 
NCI-H1563 |  |  |  |  | 1.16 | 1.1 | 0.835 | 0.6 | 0.771 | 0.828 | 0.75 | 0.604 | 0.924 | 0.889 | 0.761 | 0.581 | 0.746 | 0.771 | 0.697 | 0.744
NCI-H727 | 0.959 | 0.833 | 0.884 | 0.755 | 0.267 | 0.318 | 0.228 | 0.258 | 0.809 | 0.903 | 0.666 | 0.568 | 0.934 | 0.912 | 0.76 | 0.401 |  |  |  | 
NCI-H522 | 0.701 | 0.677 | 0.612 | 0.654 |  |  |  |  |  |  |  |  |  |  |  |  | 1.04 | 0.964 | 0.887 | 1
NCI-H2228 |  |  |  |  | 0.533 | 0.637 | 0.31 | 0.184 | 0.445 | 0.348 | 0.343 | 0.339 | 0.437 | 0.473 | 0.311 | 0.168 | 0.333 | 0.307 | 0.336 | 0.318
NCI-H1299 |  |  |  |  | 1.03 | 1.01 | 0.991 | 0.864 | 0.957 | 0.963 | 1.06 | 0.94 | 0.99 | 1.03 | 1.05 | 0.933 |  |  |  | 
Calu-6 |  |  |  |  | 0.981 | 1.02 | 0.868 | 0.829 | 0.717 | 0.856 | 0.786 | 0.729 | 0.751 | 0.969 | 0.728 | 0.582 |  |  |  | 

Reference: the supplement of paper PMC10307832
